The values that follow come from publication PMC9090415, “Discovery of small molecule inhibitors of Plasmodium falciparum apicoplast DNA polymerase” (Journal of Enzyme Inhibition and Medicinal Chemistry, 2022).

The target in this experiment is P. falciparum apicoplast DNA polymerase (Pf-apPOL) (Plasmodium falciparum, UniProt Q8ILY1). Description: Fluorescence-based high-throughput DNA polymerase assay (molecular beacon), primary screen and dose-response.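 For % inhibition ApPOL 90': test concentration in µM.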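 For % inhibition apPOL 180': test concentration in µM.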 It is filed as biochemical. The conditions noted are these: for DNA Pol: unit not given, 90 min, 10 µM; for IC50: supplemental file 2, sheet IC50 nontoxic compounds, Pf-apPOL. Put shortly: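 Single-point screening used 10 µM compound with 20 nM polymerase, 20 nM hairpin substrate and 6 µM dNTPs for 90 min at 25 °C. Confirmatory titrations (2.5–80 µM) followed fluorescence at three times, and IC50 was derived from a fit including a cooperativity term n.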

The mark [1] stands for this setting: 'DNA Pol' of the 186 hits list (primary screen result).
Setting [2] is: DRC-2, 40', concentration 10 (unit not given).
Where [3] appears, read: DRC-2, 90', concentration 5 (unit not given).
[4] abbreviates: DRC-2, 180', concentration 5 (unit not given).
[5] abbreviates: DRC-2, 5', concentration 5 (unit not given).
Where [6] appears, read: primary screen value of the library well.
Where [7] appears, read: DRC-2, 40', concentration 20 (unit not given).
The mark [8] stands for this setting: DRC-2, 180', concentration 20 (unit not given).

Chain of P. falciparum apicoplast DNA polymerase (Pf-apPOL) (Q8ILY1 entry or part of it): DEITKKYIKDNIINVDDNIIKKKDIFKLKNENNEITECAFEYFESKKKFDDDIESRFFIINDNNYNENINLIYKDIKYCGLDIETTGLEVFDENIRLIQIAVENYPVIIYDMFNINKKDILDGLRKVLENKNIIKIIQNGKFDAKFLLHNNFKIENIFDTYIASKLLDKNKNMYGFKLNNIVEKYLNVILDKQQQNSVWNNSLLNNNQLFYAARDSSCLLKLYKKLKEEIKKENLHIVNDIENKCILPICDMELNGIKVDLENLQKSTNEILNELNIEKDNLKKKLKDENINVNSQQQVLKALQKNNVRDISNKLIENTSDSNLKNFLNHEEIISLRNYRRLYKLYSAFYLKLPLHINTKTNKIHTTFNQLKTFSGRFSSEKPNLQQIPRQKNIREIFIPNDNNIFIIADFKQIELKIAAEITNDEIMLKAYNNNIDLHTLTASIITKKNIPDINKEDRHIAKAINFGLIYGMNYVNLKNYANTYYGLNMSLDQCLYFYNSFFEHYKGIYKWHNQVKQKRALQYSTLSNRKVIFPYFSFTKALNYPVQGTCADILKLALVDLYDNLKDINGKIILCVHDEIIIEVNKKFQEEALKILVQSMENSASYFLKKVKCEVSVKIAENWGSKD

Regarding `COc1ccc2c(c1)C(c1ccccc1OC)CC(=O)O2` (stereo not drawn) [Molecule 38, COc1ccc2c(c1)C(CC(=O)O2)c1ccccc1OC], the “DNA Pol” value was determined as 27 under setting [1] and 27 under setting [6]. Also, the “% inhibition Apo pol 10'” value (DRC-1, concentration 2.5) stood at 10.6274%; the “% inhibition Apo pol 10'” value (DRC-1, concentration 5) is recorded as 16.1295%; the “% inhibition Apo pol 10'” value (DRC-1, concentration 10) was 45.2437%; the “% inhibition Apo pol 10'” value (DRC-1, concentration 20) turned out to be 76.7316%; the “% inhibition Apo pol 10'” value (DRC-1, concentration 40) was determined as 94.6893%; the “% inhibition Apo pol 10'” value (DRC-1, concentration 80) is 97.2345%. Moreover, the “% inhibition Apol 90'” value (DRC-1, 90', concentration 2.5) was -7.663%; the “% inhibition Apol 90'” value (DRC-1, 90', concentration 5) is on record as -2.39%; the “% inhibition Apol 90'” value (DRC-1, 90', concentration 10) amounted to 21.9297%; the “% inhibition Apol 90'” value (DRC-1, 90', concentration 20) came out at 56.4964%; the “% inhibition Apol 90'” value (DRC-1, 90', concentration 40) came to 89.2946%; the “% inhibition Apol 90'” value (DRC-1, 90', concentration 80) was 96.5262%. The “% inhibition apPOL 180'” value by setting is: (DRC-1, 180', concentration 2.5) -11.4597%; (DRC-1, 180', concentration 5) -6.316%; (DRC-1, 180', concentration 10) 13.8407%; (DRC-1, 180', concentration 20) 46.2939%; (DRC-1, 180', concentration 40) 87.0263%; (DRC-1, 180', concentration 80) 96.2979%. Moreover, the “% inhibition apPOL 180'” value runs as follows: under setting [4], 7%; (DRC-2, 180', concentration 2.5) -3.79%; (DRC-2, 180', concentration 5) 7%; (DRC-2, 180', concentration 10) 20%; (DRC-2, 180', concentration 20) 50%; (DRC-2, 180', concentration 40) 75%. Further, the “% inhibition apPOL 180'” value (DRC-2, 180', concentration 80) amounted to 86%. The “% inhibition Apol 40'” value is reported as 27% under setting [2]; -7% (DRC-2, 40', concentration 2.5); 10% (DRC-2, 40', concentration 5); 27% (DRC-2, 40', concentration 10); 54% (DRC-2, 40', concentration 20); 72% (DRC-2, 40', concentration 40). Besides, the “% inhibition Apol 40'” value (DRC-2, 40', concentration 80) worked out at 81%. Besides, the “% inhibition ApPOL 90'” value runs as follows: under setting [3], 7%; (DRC-2, 90', concentration 2.5) -8%; (DRC-2, 90', concentration 5) 7%; (DRC-2, 90', concentration 10) 23%; (DRC-2, 90', concentration 20) 53%; (DRC-2, 90', concentration 40) 74%. Moreover, the “% inhibition ApPOL 90'” value (DRC-2, 90', concentration 80) is 84%. Further, the “% inhibition Apo pol 5'” value stood at 6.5% (DRC-2, 5', concentration 2.5); 27% (DRC-2, 5', concentration 5); 27% under setting [5]; 41% (DRC-2, 5', concentration 10); 55% (DRC-2, 5', concentration 20); 64% (DRC-2, 5', concentration 40). Under “DRC-2, 5', concentration 80”, the “% inhibition Apo pol 5'” value turned out to be 69%.

The term IC50 denotes the concentration that gives 50% inhibition. On to `O=C(O)CCS(=O)(=O)c1ccc(-c2ccc(S(=O)(=O)CCC(=O)O)cc2)cc1` [Molecule 32], for which the 50% inhibitory concentration (IC50) came out at 5.7 µM.

Take `Cc1ccccc1NC(=O)Cn1ccc2c(=O)[nH]ccc21` [Molecule 85]: the IC50 was found to be 9.12 µM.

`O=[N+]([O-])/C=C/c1ccc(-c2ccc(Br)cc2)o1` [Molecule 31, O=N(=O)/C=C/c1ccc(o1)c1ccc(cc1)Br]: the “% inhibition Apo pol 10'” value reads like this: (DRC-1, concentration 2.5) 11.7941%; (DRC-1, concentration 5) 25.8836%; (DRC-1, concentration 10) 48.5342%; (DRC-1, concentration 20) 74.9493%; (DRC-1, concentration 40) 80.1629%; (DRC-1, concentration 80) 73.881%. For the same molecule, the “% inhibition Apol 90'” value reads like this: (DRC-1, 90', concentration 2.5) 4.734%; (DRC-1, 90', concentration 5) 14.8546%; (DRC-1, 90', concentration 10) 35.3896%; (DRC-1, 90', concentration 20) 66.0417%; (DRC-1, 90', concentration 40) 79.0677%; (DRC-1, 90', concentration 80) 80.1627%. The “% inhibition apPOL 180'” value is, setting by setting: (DRC-1, 180', concentration 2.5) -3.116%; (DRC-1, 180', concentration 5) 3.824%; (DRC-1, 180', concentration 10) 20.4945%; (DRC-1, 180', concentration 20) 51.8012%; (DRC-1, 180', concentration 40) 73.5889%; (DRC-1, 180', concentration 80) 81.6814%. Also, the “% inhibition apPOL 180'” value is 21% under setting [4]; 53% under setting [8]; -3.28% (DRC-2, 180', concentration 2.5); 21% (DRC-2, 180', concentration 5); 39% (DRC-2, 180', concentration 10); 53% (DRC-2, 180', concentration 20). The “% inhibition apPOL 180'” value by setting is: (DRC-2, 180', concentration 40) 62%; (DRC-2, 180', concentration 80) 66%. For the same molecule, the “% inhibition Apo pol 5'” value reads like this: (DRC-2, 5', concentration 10 (unit not given)) 31%; (DRC-2, 5', concentration 2.5) 3.31%; (DRC-2, 5', concentration 5) 21%; under setting [5], 21%; (DRC-2, 5', concentration 10) 31%; (DRC-2, 5', concentration 20) 26%. The “% inhibition Apo pol 5'” value by setting is: (DRC-2, 5', concentration 40) 18%; (DRC-2, 5', concentration 80) 2.17%. Moreover, the “% inhibition Apol 40'” value worked out at 48% under setting [2]; 53% under setting [7]; 48% (DRC-2, 40', concentration 80 (unit not given)); 6% (DRC-2, 40', concentration 2.5); 33% (DRC-2, 40', concentration 5); 48% (DRC-2, 40', concentration 10). The “% inhibition Apol 40'” value worked out at 53% (DRC-2, 40', concentration 20); 54% (DRC-2, 40', concentration 40); 48% (DRC-2, 40', concentration 80). Moreover, the “% inhibition ApPOL 90'” value is on record as 31% under setting [3]; 48% (DRC-2, 90', concentration 10 (unit not given)); 4% (DRC-2, 90', concentration 2.5); 31% (DRC-2, 90', concentration 5); 48% (DRC-2, 90', concentration 10); 56% (DRC-2, 90', concentration 20). Besides, the “% inhibition ApPOL 90'” value reads like this: (DRC-2, 90', concentration 40) 60%; (DRC-2, 90', concentration 80) 59%. Further, the “DNA Pol” value (primary screen value of the 186 hits) was found to be 57 and the “DNA Pol” value (primary screen value, head "DNA Pol") is on record as 57.

For `CCCCc1ccc(NC(=O)CSc2nc(C3CCCCC3)c(C#N)c(=O)[nH]2)c(C)c1` [Molecule 8, CCCCc1ccc(c(c1)C)NC(=O)CSc1nc(C2CCCCC2)c(c(=O)[nH]1)C#N], the “DNA Pol” value came out at 95 under setting [1] and 95 under setting [6]. Also, the “% inhibition Apo pol 10'” value (DRC-1, concentration 2.5) was -1.955%; the “% inhibition Apo pol 10'” value (DRC-1, concentration 5) stood at 13.3371%; the “% inhibition Apo pol 10'” value (DRC-1, concentration 10) is on record as 62.6303%; the “% inhibition Apo pol 10'” value (DRC-1, concentration 20) stood at 77.3201%; the “% inhibition Apo pol 10'” value (DRC-1, concentration 40) is given as 94.4176%; the “% inhibition Apo pol 10'” value (DRC-1, concentration 80) amounted to 94.8178%. The “% inhibition Apol 90'” value is given as 1.126% (DRC-1, 90', concentration 2.5); 14.1038% (DRC-1, 90', concentration 5); 58.4598% (DRC-1, 90', concentration 10); 77.2827% (DRC-1, 90', concentration 20); 94.9708% (DRC-1, 90', concentration 40); 95.9505% (DRC-1, 90', concentration 80). Further, the “% inhibition apPOL 180'” value by setting is: (DRC-1, 180', concentration 2.5) 1.158%; (DRC-1, 180', concentration 5) 7.482%; (DRC-1, 180', concentration 10) 46.1044%; (DRC-1, 180', concentration 20) 69.2922%; (DRC-1, 180', concentration 40) 95.0497%; (DRC-1, 180', concentration 80) 96.1544%. The “% inhibition apPOL 180'” value under setting [8] was 40%; the “% inhibition apPOL 180'” value (DRC-2, 180', concentration 2.5) was -0.672%; the “% inhibition apPOL 180'” value (DRC-2, 180', concentration 5) was -0.274%; the “% inhibition apPOL 180'” value (DRC-2, 180', concentration 10) is reported as 9%; the “% inhibition apPOL 180'” value (DRC-2, 180', concentration 20) came out at 40%; the “% inhibition apPOL 180'” value (DRC-2, 180', concentration 40) was determined as 71%. Also, the “% inhibition apPOL 180'” value (DRC-2, 180', concentration 80) amounted to 86%. Also, the “% inhibition Apo pol 5'” value is listed as 40% (DRC-2, 5', concentration 20 (unit not given)); -2.67% (DRC-2, 5', concentration 2.5); 2.83% (DRC-2, 5', concentration 5); 12% (DRC-2, 5', concentration 10); 40% (DRC-2, 5', concentration 20); 61% (DRC-2, 5', concentration 40). Further, the “% inhibition Apo pol 5'” value (DRC-2, 5', concentration 80) is 65%. The “% inhibition Apol 40'” value worked out at 48% under setting [7]; 1.81% (DRC-2, 40', concentration 2.5); 5% (DRC-2, 40', concentration 5); 16% (DRC-2, 40', concentration 10); 48% (DRC-2, 40', concentration 20); 72% (DRC-2, 40', concentration 40). Further, where the note is “DRC-2, 40', concentration 80”, the “% inhibition Apol 40'” value was determined as 79%. Further, the “% inhibition ApPOL 90'” value is on record as 48% (DRC-2, 90', concentration 20 (unit not given)); 1.18% (DRC-2, 90', concentration 2.5); 4% (DRC-2, 90', concentration 5); 15% (DRC-2, 90', concentration 10); 48% (DRC-2, 90', concentration 20); 73% (DRC-2, 90', concentration 40). Further, the “% inhibition ApPOL 90'” value (DRC-2, 90', concentration 80) is 83%.

Consider `Cc1cc(C)c2c(c1)C1C=CCC1C(c1ccc(C(=O)O)cc1)N2` (stereo not drawn) [Molecule 102], for which the 50% inhibitory concentration (IC50) came to 2.89 µM.

For `O=C(O)c1nc(-c2ccccc2)nc2c1OCO2` [Molecule 45], the 50% inhibitory concentration (IC50) amounted to 11.2 µM.
